{
  "source": "patent US11672795B2",
  "about": "“Compositions and methods for treating pulmonary vascular disease” (UNIVERSITY OF PITTSBURGH-OF THE COMMONWEALTH SYSTEM OF …, priority 2016, dated 2023)",
  "assay_type_in_all_cases": "cell-based, human",
  "key": {"GLS1": {"system": "GLS1", "assay": "Targeted LC-MS/MS of intracellular metabolites in PAECs on soft or stiff matrix with GLS inhibitors", "details": "stiff matrix, BPTES 10 μM, DON 5 μM, C968 10 μM", "experimental": "HEK293T cells (American Type Culture Collection) were cultivated in DMEM containing 10% fetal bovine serum (FBS). Primary human pulmonary arterial endothelial cells (PAECs) were grown in EGM-2 cell culture media (Lonza), and experiments were performed at passages 3 to 6. Primary human pulmonary arterial smooth muscle cells (PASMCs) were cultured in SmGM-2 cell culture media (Lonza), and experiments were performed at passages 3 to 9. Inhibitors of GLS1 (2, 3): BPTES (Bis-2-(5-phenylacetamido-1,3,4-thiadiazol-2-yl)ethyl sulphide), DON (6-Diazo-5-oxo-L-norleucine), and C968 (Glutaminase Inhibitor, Compound 968, 5-(3-Bromo-4-(dimethylamino)phenyl)-2,2-dimethyl-2,3,5,6-tetrahydrobenzo[a]phenanthridin-4(1H)-one) were purchased from Sigma-Aldrich and used at concentration of 10 μM, 5 μM and 10 μM respectively. Glutamate was purchased from Sigma Aldrich and used at concentration of 2 mM. Aspartate was purchased from Sigma Aldrich and used at concentration of 10 mM.\nMetabolite extraction was performed essentially as described with minor modifications (35). Briefly, metabolites were extracted from cultured cells and CD31+ cells on dry ice using 80% aqueous methanol pre-cooled at −80° C. Metabolites were extracted from plasma pre-cleared by centrifugation at 20,000×g for 10 min at 4° C. Supernatants were extracted with four volumes of 100% methanol pre-cooled at −80° C. for four hours at −80° C. An internal standard, [^13C4]-2-oxoglutarate (Cambridge Isotope Laboratories) was added during metabolite extraction. Insoluble material from both cell and plasma extractions was removed by centrifugation at 20,000×g for 15 min at 4° C. The supernatant was analysed by targeted LC-MS/MS as previously described (36). Metabolites were separated using a ZIC-HILIC stationary phase (150 mm×2.1 mm×[…]; Merck). The MS parameters were optimized using a glutamine standard solution. Monitored mass transitions were 87>87 (pyruvate), 115>73+99 (succinate), 132>88 (aspartate), 145>101 (20G), […] (glutamine), 146>128 (glutamate), and 149>105 ([^13C4]-20G). Mass transitions and retention time windows were confirmed by the analysis of neat and matrix-spiked standards. Peak areas were quantified by Xcalibur Software (Thermo) and manually reviewed.\nTo determine whether GLS1 is critical for stiffness-induced and YAP/TAZ-dependent glutaminolysis, PAECs were cultivated in soft or stiff matrix, and exposed to known inhibitors of two isoforms of GLS1 (KGA and GAC), BPTES (Bis-2-(5-phenylacetamido-1,3,4-thiadiazol-2-yl)ethyl sulphide), DON (6-Diazo-5-oxo-L-norleucine), or CB-968 (glutaminase inhibitor, compound 968, C-968) (FIG. 3A-C) or siRNA (si-GLS; FIG. 3D-G). As quantified by LC-MS/MS, inhibition of GLS in PAECs blunted the stiffness-induced processes of glutamine consumption, glutamate production, and aspartate production (FIGS. 3A and E). […] Similar alterations of metabolic activity were observed when inhibiting GLS1 in PASMCs (data not shown)."}, "PAECs [1]": {"system": "PAECs", "assay": "Proliferation of PAECs (cell count, BrdU pulse, PCNA staining)", "details": "PAECs, stiff matrix, 48 h after plating", "experimental": "A-C) PAECs were plated on soft (1 kPa) or stiff (50 kPa) matrix and exposed to indicated treatments. Apoptosis (A-C) and proliferation (B-C) were quantified 48 h after plating. […] Apoptosis (as reflected by cleaved caspase-3 staining, CC-3+) was increased by serum starvation in both soft and stiff conditions but was not affected by GLS1 inhibition. In all panels, mean expression in control groups (soft matrix) was assigned a fold change of 1, to which relevant samples were compared. Data are expressed as mean±SD (*P<0.05; ** P<0.01, ***P<0.001).\n(§1) After various indicated treatments, cultured cells were fixed with PBS/PFA 4% for 10 min and permeabilized with PBS/Triton 100×0.1% for 10 min. The cells were then incubated with anti-PCNA (#4912; 1/100; Invitrogen), anti-Ki67 (ab15580; 1/200; Abcam), and/or anti-cleaved caspase-3 (1/200; Cell Signaling) at room temperature for 2 hours. Secondary antibodies coupled with Alexa-594 and/or Alexa-488 (Thermo Scientific) were used at 1/500. Nuclei were counterstained with DAPI (Sigma).\nAfter specified pre-treatment or transfection protocols as indicated, PAECs or PASMCs were plated in triplicate in 6 well plates at 30 000 cells per well. After overnight incubation for cells to adhere, 6 wells were counted to determine initial count at time of treatments (glutamate, aspartate, BPTES, DON or C968). After 2 days, 4 days or 6 days, the contents of the wells were trypsinized and counted, and proliferation rate was calculated.\nExponentially growing cells were plated in the indicated matrix for 48 hours."}, "PAECs [2]": {"system": "PAECs", "assay": "Apoptosis of PAECs on soft or stiff matrix (caspase 3/7 activity, cleaved caspase-3 staining)", "experimental": "A-C) PAECs were plated on soft (1 kPa) or stiff (50 kPa) matrix and exposed to indicated treatments. Apoptosis (A-C) and proliferation (B-C) were quantified 48 h after plating. […] In all panels, mean expression in control groups (soft matrix) was assigned a fold change of 1, to which relevant samples were compared. Data are expressed as mean±SD (*P<0.05; ** P<0.01, ***P<0.001).\nas §1\nCaspase 3/7 activity was quantified using the Caspase-Glo 3/7 Assay (Promega), according to manufacturer's instructions. Briefly, cells were plated on hydrogel of different stiffness and treated as described. Twenty four hours after plating, cells were cultured in the presence or absence of serum for twenty-four hours. Cells were then lysed and 10 μg of total protein were incubated for 1 h with the caspase substrates, and luminescence was quantified by plate reader (SynergyHTX multi-mode reader, Biotek)."}},
  "data": [
    {"smiles": "CN(C)c1ccc(C2Nc3ccc4ccccc4c3C3=C2C(=O)CC(C)(C)C3)cc1Br", "note": "(centres unmarked) [C968, 5-(3-Bromo-4-(dimethylamino)phenyl)-2,2-dimethyl-2,3,5,6-tetrahydrobenzo[a]phenanthridin-4(1H)-one]", "values": [
      {"measurement": "alterations of metabolite expression in stiff matrix (stiffness-induced glutamine consumption, glutamate production, aspartate production)", "setting": "GLS1", "value": "blunted"},
      {"measurement": "lactate/pyruvate ratio (glycolysis)", "setting": "GLS1", "value": "decreased"},
      {"measurement": "proliferation in stiff matrix (PCNA+)", "setting": "PAECs [1]", "value": "decreased"},
      {"measurement": "apoptosis (cleaved caspase-3 staining, CC-3+)", "setting": "PAECs [2]; serum starvation, soft and stiff conditions", "value": "not affected"},
      {"measurement": "caspase 3/7 activity", "setting": "PAECs [2]; soft (1 kPa) or stiff (50 kPa) matrix, 24 h after serum depletion, vs vehicle control", "value": "No significant changes"}
    ]}
  ]
}
